Source: the kinase profiling compilation of Christmann-Franck et al. (2016)

What was measured:
Assay in all cases: KINOMEscan competition binding
Details in all cases: compound 10.0 µM
[1] = test system: PIK3CA (human), P42336 [M1043I]
SBK1 (human) = SBK1 (human) (UniProt Q52WX2)
ITK (human) = ITK (human) (UniProt Q08881)
[2] = target: JAK3 JH1 catalytic (human) (UniProt P52333)
ACVR1 (human) = ACVR1 (human) (UniProt Q04771)
CPK1 (P.falciparum) = test system: CPK1 (P.falciparum)
CDKL5 (human) = CDKL5 (human) (UniProt O76039)
CASK (human) = CASK (human) (UniProt O14936)
MERTK (human) = MERTK (human) (UniProt Q12866)
CDKL3 (human) = CDKL3 (human) (UniProt Q8IVW4)
PDPK1 (human) = PDPK1 (human) (UniProt O15530)
PDGFRB (human) = PDGFRB (human) (UniProt P09619)
Sequence of PDGFRB (human) (P09619 whole entry, looked up): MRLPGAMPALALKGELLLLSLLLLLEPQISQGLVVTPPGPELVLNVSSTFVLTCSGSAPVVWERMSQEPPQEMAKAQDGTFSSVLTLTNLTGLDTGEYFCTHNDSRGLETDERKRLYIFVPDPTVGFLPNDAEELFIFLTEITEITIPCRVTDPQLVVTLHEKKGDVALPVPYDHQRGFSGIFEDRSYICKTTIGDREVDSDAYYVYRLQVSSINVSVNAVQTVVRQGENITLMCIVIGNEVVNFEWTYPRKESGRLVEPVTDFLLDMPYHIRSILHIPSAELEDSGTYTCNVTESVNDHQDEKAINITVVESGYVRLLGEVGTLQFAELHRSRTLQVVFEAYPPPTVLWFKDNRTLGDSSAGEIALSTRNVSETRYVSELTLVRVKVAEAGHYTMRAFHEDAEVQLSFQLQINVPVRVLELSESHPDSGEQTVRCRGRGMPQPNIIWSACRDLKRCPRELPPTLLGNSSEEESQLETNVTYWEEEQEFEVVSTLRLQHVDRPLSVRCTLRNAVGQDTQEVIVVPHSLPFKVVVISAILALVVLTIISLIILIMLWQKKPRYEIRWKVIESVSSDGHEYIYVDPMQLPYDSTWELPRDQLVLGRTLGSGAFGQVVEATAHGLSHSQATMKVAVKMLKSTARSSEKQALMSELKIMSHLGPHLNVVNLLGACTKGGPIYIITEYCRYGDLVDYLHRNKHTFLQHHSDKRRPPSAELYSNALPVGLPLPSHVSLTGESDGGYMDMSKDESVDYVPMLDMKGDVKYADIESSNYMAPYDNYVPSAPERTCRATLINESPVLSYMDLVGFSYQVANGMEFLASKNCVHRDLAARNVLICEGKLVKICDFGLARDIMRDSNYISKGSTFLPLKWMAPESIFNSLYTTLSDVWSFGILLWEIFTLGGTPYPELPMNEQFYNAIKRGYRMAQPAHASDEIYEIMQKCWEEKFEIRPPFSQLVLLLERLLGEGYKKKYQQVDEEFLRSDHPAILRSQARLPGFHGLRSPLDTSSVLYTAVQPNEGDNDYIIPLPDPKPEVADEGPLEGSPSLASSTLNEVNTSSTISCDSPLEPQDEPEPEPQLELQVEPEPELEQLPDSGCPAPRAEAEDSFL

SYK (human) = SYK (human) (UniProt P43405)
PRKG1 (human) = PRKG1 (human) (UniProt Q13976)
Sequence of PRKG1 (human) (Q13976 whole entry, looked up): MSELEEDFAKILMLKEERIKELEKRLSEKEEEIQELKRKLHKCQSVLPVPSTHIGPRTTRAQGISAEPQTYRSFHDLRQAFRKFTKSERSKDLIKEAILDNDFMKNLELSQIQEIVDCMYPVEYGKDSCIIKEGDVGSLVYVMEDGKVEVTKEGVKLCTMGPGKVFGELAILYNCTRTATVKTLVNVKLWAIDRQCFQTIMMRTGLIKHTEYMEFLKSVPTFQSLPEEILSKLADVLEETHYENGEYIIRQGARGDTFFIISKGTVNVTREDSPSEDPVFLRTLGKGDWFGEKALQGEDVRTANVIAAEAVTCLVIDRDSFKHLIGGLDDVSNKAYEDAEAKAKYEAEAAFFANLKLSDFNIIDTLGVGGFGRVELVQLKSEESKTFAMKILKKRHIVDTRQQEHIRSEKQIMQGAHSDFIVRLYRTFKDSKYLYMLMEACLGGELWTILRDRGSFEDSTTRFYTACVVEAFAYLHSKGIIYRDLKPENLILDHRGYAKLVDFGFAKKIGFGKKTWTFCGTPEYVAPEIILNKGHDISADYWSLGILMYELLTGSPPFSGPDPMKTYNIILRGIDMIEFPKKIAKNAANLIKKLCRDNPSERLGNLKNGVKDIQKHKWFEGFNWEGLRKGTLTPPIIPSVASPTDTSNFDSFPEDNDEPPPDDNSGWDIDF

WEE1 (human) = WEE1 (human) (UniProt P30291)
NIM1 (human) = NIM1 (human) (UniProt Q8IY84)
FGFR2 (human) = FGFR2 (human) (UniProt P21802)
ERBB3 (human) = ERBB3 (human) (UniProt P21860)
MAP3K3 (human) = MAP3K3 (human) (UniProt Q99759)
ACVR2B (human) = ACVR2B (human) (UniProt Q13705)
MAP3K15 (human) = MAP3K15 (human) (UniProt Q6ZN16)
MAPK6 (human) = MAPK6 (human) (UniProt Q16659)
[3] = test system: KIT (human), P10721 [D816H]
CHUK (human) = CHUK (human) (UniProt O15111)
Sequence of CHUK (human) (O15111 whole entry, looked up): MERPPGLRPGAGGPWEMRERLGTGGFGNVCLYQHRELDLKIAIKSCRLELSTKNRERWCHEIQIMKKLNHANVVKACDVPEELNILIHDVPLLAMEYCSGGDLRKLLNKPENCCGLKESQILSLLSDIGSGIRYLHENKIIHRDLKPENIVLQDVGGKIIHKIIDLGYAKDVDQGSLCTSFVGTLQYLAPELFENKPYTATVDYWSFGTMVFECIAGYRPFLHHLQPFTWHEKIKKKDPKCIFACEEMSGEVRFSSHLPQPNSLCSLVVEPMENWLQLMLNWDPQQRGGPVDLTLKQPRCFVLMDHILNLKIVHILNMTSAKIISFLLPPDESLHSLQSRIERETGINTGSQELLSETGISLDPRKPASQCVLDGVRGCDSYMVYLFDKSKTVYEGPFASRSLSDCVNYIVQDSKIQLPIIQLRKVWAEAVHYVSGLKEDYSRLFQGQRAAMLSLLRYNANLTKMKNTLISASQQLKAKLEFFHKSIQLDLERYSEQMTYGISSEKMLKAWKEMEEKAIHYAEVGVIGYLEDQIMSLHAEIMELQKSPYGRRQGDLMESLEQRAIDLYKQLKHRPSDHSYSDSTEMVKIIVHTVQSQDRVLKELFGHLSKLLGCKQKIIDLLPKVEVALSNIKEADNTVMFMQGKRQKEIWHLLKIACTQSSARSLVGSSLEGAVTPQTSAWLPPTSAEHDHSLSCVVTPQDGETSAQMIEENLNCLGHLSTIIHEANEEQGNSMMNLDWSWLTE

RPS6KA4 KD1 (human) = RPS6KA4 KD1 (human) (UniProt O75676)
STK35 (human) = STK35 (human) (UniProt Q8TDR2)
CAMK2A (human) = CAMK2A (human) (UniProt Q9UQM7)
MAPK1 (human) = MAPK1 (human) (UniProt P28482)
[4] = test system: FGFR3 (human), P22607 [G697C]
MAP2K2 (human) = MAP2K2 (human) (UniProt P36507)
MAPK12 (human) = MAPK12 (human) (UniProt P53778)
PRKCH (human) = PRKCH (human) (UniProt P24723)
TEK (human) = TEK (human) (UniProt Q02763)
MYLK (human) = MYLK (human) (UniProt Q15746)
Sequence of MYLK (human) (Q15746 whole entry, looked up): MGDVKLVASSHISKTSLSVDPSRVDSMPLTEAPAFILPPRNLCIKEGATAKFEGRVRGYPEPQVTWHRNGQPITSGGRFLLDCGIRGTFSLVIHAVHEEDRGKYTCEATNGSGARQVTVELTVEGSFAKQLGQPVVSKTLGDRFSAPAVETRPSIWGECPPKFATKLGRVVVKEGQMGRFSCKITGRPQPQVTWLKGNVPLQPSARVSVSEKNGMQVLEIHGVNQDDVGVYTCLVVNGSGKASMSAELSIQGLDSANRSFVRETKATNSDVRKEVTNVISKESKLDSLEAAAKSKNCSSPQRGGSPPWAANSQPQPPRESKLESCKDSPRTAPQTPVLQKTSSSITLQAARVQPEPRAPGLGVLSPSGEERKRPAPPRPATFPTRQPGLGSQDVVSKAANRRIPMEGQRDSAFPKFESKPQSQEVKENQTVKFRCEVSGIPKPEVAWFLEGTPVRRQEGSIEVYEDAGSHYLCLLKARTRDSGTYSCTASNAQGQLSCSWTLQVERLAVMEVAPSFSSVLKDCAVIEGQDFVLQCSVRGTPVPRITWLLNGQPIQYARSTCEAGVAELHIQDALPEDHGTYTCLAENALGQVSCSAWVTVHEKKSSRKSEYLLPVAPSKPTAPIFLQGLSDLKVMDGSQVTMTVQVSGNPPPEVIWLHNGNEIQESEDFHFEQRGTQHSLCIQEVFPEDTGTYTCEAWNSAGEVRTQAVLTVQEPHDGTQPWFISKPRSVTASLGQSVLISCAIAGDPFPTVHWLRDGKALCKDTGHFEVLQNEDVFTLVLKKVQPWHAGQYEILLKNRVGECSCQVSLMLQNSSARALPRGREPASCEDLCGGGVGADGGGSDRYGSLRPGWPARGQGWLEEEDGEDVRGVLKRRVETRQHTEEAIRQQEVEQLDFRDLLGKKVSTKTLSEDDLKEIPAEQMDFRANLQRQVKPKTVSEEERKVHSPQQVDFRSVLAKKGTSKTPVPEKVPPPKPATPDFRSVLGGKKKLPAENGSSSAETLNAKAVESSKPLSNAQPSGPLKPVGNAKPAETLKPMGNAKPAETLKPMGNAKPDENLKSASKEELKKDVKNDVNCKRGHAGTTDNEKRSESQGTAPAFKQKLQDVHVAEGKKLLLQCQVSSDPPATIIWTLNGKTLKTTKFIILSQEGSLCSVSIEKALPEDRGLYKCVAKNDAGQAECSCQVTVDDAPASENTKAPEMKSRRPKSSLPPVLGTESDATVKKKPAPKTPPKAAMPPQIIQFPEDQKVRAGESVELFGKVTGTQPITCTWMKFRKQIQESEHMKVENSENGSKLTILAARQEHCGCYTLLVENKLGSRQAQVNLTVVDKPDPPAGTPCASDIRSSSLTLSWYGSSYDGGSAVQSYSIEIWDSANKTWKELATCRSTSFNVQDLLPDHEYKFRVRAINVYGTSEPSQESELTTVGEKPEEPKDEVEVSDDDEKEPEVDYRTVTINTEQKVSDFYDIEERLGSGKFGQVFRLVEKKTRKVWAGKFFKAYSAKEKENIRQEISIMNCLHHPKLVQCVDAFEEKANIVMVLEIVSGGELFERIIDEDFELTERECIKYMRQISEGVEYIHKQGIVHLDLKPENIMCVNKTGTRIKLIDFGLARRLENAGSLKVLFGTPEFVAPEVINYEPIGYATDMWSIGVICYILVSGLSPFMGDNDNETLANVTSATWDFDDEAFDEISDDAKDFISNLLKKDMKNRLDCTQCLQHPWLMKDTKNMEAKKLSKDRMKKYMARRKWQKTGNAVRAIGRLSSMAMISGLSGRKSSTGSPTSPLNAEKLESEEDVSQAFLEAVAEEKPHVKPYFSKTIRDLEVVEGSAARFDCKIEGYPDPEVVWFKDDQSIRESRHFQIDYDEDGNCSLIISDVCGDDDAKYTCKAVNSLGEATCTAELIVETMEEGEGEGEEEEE

NLK (human) = NLK (human) (UniProt Q9UBE8)
ROCK2 (human) = ROCK2 (human) (UniProt O75116)
PHKG2 (human) = PHKG2 (human) (UniProt P15735)
CSNK1D (human) = CSNK1D (human) (UniProt P48730)
MARK3 (human) = MARK3 (human) (UniProt P27448)
NEK6 (human) = NEK6 (human) (UniProt Q9HC98)
Sequence of NEK6 (human) (Q9HC98 whole entry, looked up): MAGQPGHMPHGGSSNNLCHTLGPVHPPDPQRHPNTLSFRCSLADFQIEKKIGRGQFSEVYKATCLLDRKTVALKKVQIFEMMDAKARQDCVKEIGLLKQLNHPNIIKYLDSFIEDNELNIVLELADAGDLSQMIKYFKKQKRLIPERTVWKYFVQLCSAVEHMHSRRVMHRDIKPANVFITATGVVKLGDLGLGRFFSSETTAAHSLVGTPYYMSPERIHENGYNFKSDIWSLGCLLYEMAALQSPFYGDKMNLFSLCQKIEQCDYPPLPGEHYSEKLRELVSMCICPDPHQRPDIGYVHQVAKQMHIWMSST

O=c1[nH]c2ccccc2n1C1CCN(Cc2ccc(-c3nc4cc5[nH]cnc5cc4nc3-c3ccccc3)cc2)CC1
kinase still bound, per cent of control [1]: 100%
kinase still bound, per cent of control (SBK1 (human)): 92%
kinase still bound, per cent of control (ITK (human)): 97%
kinase still bound, per cent of control [2]: 95%
kinase still bound, per cent of control (ACVR1 (human)): 92%
kinase still bound, per cent of control (CPK1 (P.falciparum)): 40%
kinase still bound, per cent of control (CDKL5 (human)): 86%
kinase still bound, per cent of control (CASK (human)): 79%
kinase still bound, per cent of control (MERTK (human)): 95%
kinase still bound, per cent of control (CDKL3 (human)): 100%
kinase still bound, per cent of control (PDPK1 (human)): 93%
kinase still bound, per cent of control (PDGFRB (human)): 72%
kinase still bound, per cent of control (SYK (human)): 84%
kinase still bound, per cent of control (PRKG1 (human)): 88%
kinase still bound, per cent of control (WEE1 (human)): 99%
kinase still bound, per cent of control (NIM1 (human)): 71%
kinase still bound, per cent of control (FGFR2 (human)): 100%
kinase still bound, per cent of control (ERBB3 (human)): 100%
kinase still bound, per cent of control (MAP3K3 (human)): 83%
kinase still bound, per cent of control (ACVR2B (human)): 100%
kinase still bound, per cent of control (MAP3K15 (human)): 100%
kinase still bound, per cent of control (MAPK6 (human)): 100%
kinase still bound, per cent of control [3]: 100%
kinase still bound, per cent of control (CHUK (human)): 75%
kinase still bound, per cent of control (RPS6KA4 KD1 (human)): 100%
kinase still bound, per cent of control (STK35 (human)): 100%
kinase still bound, per cent of control (CAMK2A (human)): 98%
kinase still bound, per cent of control (MAPK1 (human)): 100%
kinase still bound, per cent of control [4]: 89%
kinase still bound, per cent of control (MAP2K2 (human)): 75%
kinase still bound, per cent of control (MAPK12 (human)): 98%
kinase still bound, per cent of control (PRKCH (human)): 69%
kinase still bound, per cent of control (TEK (human)): 85%
kinase still bound, per cent of control (MYLK (human)): 57%
kinase still bound, per cent of control (NLK (human)): 87%
kinase still bound, per cent of control (ROCK2 (human)): 73%
kinase still bound, per cent of control (PHKG2 (human)): 100%
kinase still bound, per cent of control (CSNK1D (human)): 18%
kinase still bound, per cent of control (MARK3 (human)): 72%
kinase still bound, per cent of control (NEK6 (human)): 100%

C=CC(=O)Nc1ccc(C(=O)c2sc(Nc3ccc(N4CCN(C)CC4)cc3OC)nc2N)cc1
kinase still bound, per cent of control [1]: 100%
kinase still bound, per cent of control (SBK1 (human)): 85%
kinase still bound, per cent of control (ITK (human)): 74%
kinase still bound, per cent of control [2]: 100%
kinase still bound, per cent of control (ACVR1 (human)): 100%
kinase still bound, per cent of control (CPK1 (P.falciparum)): 74%
kinase still bound, per cent of control (CDKL5 (human)): 74%
kinase still bound, per cent of control (CASK (human)): 100%
kinase still bound, per cent of control (MERTK (human)): 100%
kinase still bound, per cent of control (CDKL3 (human)): 100%
kinase still bound, per cent of control (PDPK1 (human)): 100%
kinase still bound, per cent of control (PDGFRB (human)): 54%
kinase still bound, per cent of control (SYK (human)): 100%
kinase still bound, per cent of control (PRKG1 (human)): 74%
kinase still bound, per cent of control (WEE1 (human)): 100%
kinase still bound, per cent of control (NIM1 (human)): 91%
kinase still bound, per cent of control (FGFR2 (human)): 49%
kinase still bound, per cent of control (ERBB3 (human)): 93%
kinase still bound, per cent of control (MAP3K3 (human)): 65%
kinase still bound, per cent of control (ACVR2B (human)): 100%
kinase still bound, per cent of control (MAP3K15 (human)): 9.2%
kinase still bound, per cent of control (MAPK6 (human)): 90%
kinase still bound, per cent of control [3]: 70%
kinase still bound, per cent of control (CHUK (human)): 59%
kinase still bound, per cent of control (RPS6KA4 KD1 (human)): 95%
kinase still bound, per cent of control (STK35 (human)): 94%
kinase still bound, per cent of control (CAMK2A (human)): 1.2%
kinase still bound, per cent of control (MAPK1 (human)): 100%
kinase still bound, per cent of control [4]: 77%
kinase still bound, per cent of control (MAP2K2 (human)): 89%
kinase still bound, per cent of control (MAPK12 (human)): 100%
kinase still bound, per cent of control (PRKCH (human)): 100%
kinase still bound, per cent of control (TEK (human)): 89%
kinase still bound, per cent of control (MYLK (human)): 8.6%
kinase still bound, per cent of control (NLK (human)): 76%
kinase still bound, per cent of control (ROCK2 (human)): 24%
kinase still bound, per cent of control (PHKG2 (human)): 3%
kinase still bound, per cent of control (CSNK1D (human)): 72%
kinase still bound, per cent of control (MARK3 (human)): 100%
kinase still bound, per cent of control (NEK6 (human)): 73%

N#Cc1cc(-c2ccnc(Nc3ccc(-n4cnc(-c5cccnc5)n4)cc3)n2)cc(N2CCOCC2)c1
kinase still bound, per cent of control [1]: 100%
kinase still bound, per cent of control (SBK1 (human)): 100%
kinase still bound, per cent of control (ITK (human)): 100%
kinase still bound, per cent of control [2]: 2.2%
kinase still bound, per cent of control (ACVR1 (human)): 23%
kinase still bound, per cent of control (CPK1 (P.falciparum)): 48%
kinase still bound, per cent of control (CDKL5 (human)): 7%
kinase still bound, per cent of control (CASK (human)): 78%
kinase still bound, per cent of control (MERTK (human)): 57%
kinase still bound, per cent of control (CDKL3 (human)): 45%
kinase still bound, per cent of control (PDPK1 (human)): 100%
kinase still bound, per cent of control (PDGFRB (human)): 8.2%
kinase still bound, per cent of control (SYK (human)): 25%
kinase still bound, per cent of control (PRKG1 (human)): 100%
kinase still bound, per cent of control (WEE1 (human)): 82%
kinase still bound, per cent of control (NIM1 (human)): 58%
kinase still bound, per cent of control (FGFR2 (human)): 91%
kinase still bound, per cent of control (ERBB3 (human)): 69%
kinase still bound, per cent of control (MAP3K3 (human)): 30%
kinase still bound, per cent of control (ACVR2B (human)): 49%
kinase still bound, per cent of control (MAP3K15 (human)): 66%
kinase still bound, per cent of control (MAPK6 (human)): 0.95%
kinase still bound, per cent of control [3]: 50%
kinase still bound, per cent of control (CHUK (human)): 55%
kinase still bound, per cent of control (RPS6KA4 KD1 (human)): 100%
kinase still bound, per cent of control (STK35 (human)): 48%
kinase still bound, per cent of control (CAMK2A (human)): 16%
kinase still bound, per cent of control (MAPK1 (human)): 100%
kinase still bound, per cent of control [4]: 90%
kinase still bound, per cent of control (MAP2K2 (human)): 62%
kinase still bound, per cent of control (MAPK12 (human)): 80%
kinase still bound, per cent of control (PRKCH (human)): 83%
kinase still bound, per cent of control (TEK (human)): 67%
kinase still bound, per cent of control (MYLK (human)): 100%
kinase still bound, per cent of control (NLK (human)): 76%
kinase still bound, per cent of control (ROCK2 (human)): 25%
kinase still bound, per cent of control (PHKG2 (human)): 81%
kinase still bound, per cent of control (CSNK1D (human)): 86%
kinase still bound, per cent of control (MARK3 (human)): 100%
kinase still bound, per cent of control (NEK6 (human)): 76%
